# EP4722207A1, “OXOISOINDOLINYL-SUBSTITUTED TETRAHYDROPYRIMIDINEDIONE DERIVATIVE AND USE THEREOF” (Gluetacs Therapeutics (Shanghai) Co., Ltd., priority 2023, dated 2024)
# What was measured:
# IKZF3 = target: T1, IKZF3 (Homo sapiens, UniProt Q96SW2+Q9UKT9); assay: Western-blot assay, substrate protein degradation in hPBMCs: IKZF3; type: cell-based; details: for IKZF3 substrate protein remaining %: compounds at 50 nM and 500 nM, 24 hours
# T1 construct: effects of the compounds of the present disclosure on the expression of target proteins in cells; endogenous in cells; host or cells: human PBMCs (hPBMCs)
# Jurkat = assay: Cell viability assay (CellTiter-Meiluncell Luminescent), tumor cell proliferation, Jurkat; details: Homo sapiens, 96 h, read-out: inhibitory activity (IC50, nM) against tumor cells proliferation, Jurkat
# WEE1 = target: T2, WEE1 (Homo sapiens, UniProt P30291+Q96SW2); assay: Western-blot assay, substrate protein degradation in hPBMCs: WEE1; type: cell-based; details: for WEE1 substrate protein remaining %: compounds at 50 nM and 500 nM, 24 hours
# T2 construct: effects of the compounds of the present disclosure on the expression of target proteins in cells; endogenous in cells; host or cells: human PBMCs (hPBMCs)
# IKZF1 = target: T3, IKZF1 (Homo sapiens, UniProt Q13422+Q96SW2); assay: Western-blot assay, substrate protein degradation in hPBMCs: IKZF1; type: cell-based; details: for IKZF1 substrate protein remaining %: compounds at 50 nM and 500 nM, 24 hours
# T3 construct: effects of the compounds of the present disclosure on the expression of target proteins in cells; endogenous in cells; host or cells: human PBMCs (hPBMCs)
# MV-4-11 = assay: Cell viability assay (CellTiter-Meiluncell Luminescent), tumor cell proliferation, MV-4-11; details: Homo sapiens, MV4-11, 96 h
# GSPT1 = target: T4, GSPT1 (Homo sapiens, UniProt P15170+Q96SW2); assay: Western-blot assay, substrate protein degradation in hPBMCs: GSPT1; type: cell-based; details: for GSPT1 substrate protein remaining %: compounds at 50 nM and 500 nM, 24 hours
# T4 construct: effects of the compounds of the present disclosure on the expression of target proteins in cells; endogenous in cells; host or cells: human PBMCs (hPBMCs)
# CK1α = target: T5, CK1α (Homo sapiens, UniProt P48729+Q96SW2); assay: Western-blot assay, substrate protein degradation in hPBMCs: CK1α; type: cell-based; details: for CK1α substrate protein remaining %: compounds at 50 nM and 500 nM, 24 hours
# T5 construct: effects of the compounds of the present disclosure on the expression of target proteins in cells; endogenous in cells; host or cells: human PBMCs (hPBMCs)
# IKZF2 = target: T6, IKZF2 (Homo sapiens, UniProt Q96SW2+Q9UKS7); assay: Western-blot assay, substrate protein degradation in hPBMCs: IKZF2; type: cell-based; details: for IKZF2 substrate protein remaining %: compounds at 50 nM and 500 nM, 24 hours
# T6 construct: effects of the compounds of the present disclosure on the expression of target proteins in cells; endogenous in cells; host or cells: human PBMCs (hPBMCs)
# H292 = assay: Cell viability assay (CellTiter-Meiluncell Luminescent), tumor cell proliferation, H292; details: Homo sapiens, NCI-H292, 96 h
# MDA-MB-231 = assay: Cell viability assay (CellTiter-Meiluncell Luminescent), tumor cell proliferation, MDA-MB-231; details: Homo sapiens, MDA-MB-231, 96 h
# H2228 = assay: Cell viability assay (CellTiter-Meiluncell Luminescent), tumor cell proliferation, H2228; details: Homo sapiens, NCI-H2228, 96 h
# MM.1S = assay: Cell viability assay (CellTiter-Meiluncell Luminescent), tumor cell proliferation, MM.1S; details: Homo sapiens, MM1.S, 96 h
# [1] = 24 hours of compound treatment, 50 nM and 500 nM
# [2] = read-out: Inhibition Rate at 10 nM (%)
# [3] = read-out: Inhibition Rate at 500 nM (%)
# T2 sequence (P30291 whole entry): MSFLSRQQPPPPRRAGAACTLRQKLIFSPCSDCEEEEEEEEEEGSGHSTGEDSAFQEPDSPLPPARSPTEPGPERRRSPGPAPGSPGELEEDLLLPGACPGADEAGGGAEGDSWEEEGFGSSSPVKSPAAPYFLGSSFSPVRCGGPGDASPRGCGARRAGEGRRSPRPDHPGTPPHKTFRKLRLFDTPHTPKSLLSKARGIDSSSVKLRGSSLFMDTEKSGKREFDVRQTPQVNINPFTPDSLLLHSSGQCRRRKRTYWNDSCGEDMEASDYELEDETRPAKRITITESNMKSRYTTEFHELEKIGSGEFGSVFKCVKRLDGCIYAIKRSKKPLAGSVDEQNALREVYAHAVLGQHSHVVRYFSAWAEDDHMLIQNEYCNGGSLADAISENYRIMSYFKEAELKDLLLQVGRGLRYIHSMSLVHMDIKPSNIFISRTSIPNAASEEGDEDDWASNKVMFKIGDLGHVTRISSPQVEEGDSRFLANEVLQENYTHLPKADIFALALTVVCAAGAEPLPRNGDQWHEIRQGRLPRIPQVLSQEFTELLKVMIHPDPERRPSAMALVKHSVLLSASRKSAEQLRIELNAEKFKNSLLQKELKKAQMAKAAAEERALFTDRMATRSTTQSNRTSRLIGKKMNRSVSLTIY
# T2 sequence (Q96SW2 whole entry): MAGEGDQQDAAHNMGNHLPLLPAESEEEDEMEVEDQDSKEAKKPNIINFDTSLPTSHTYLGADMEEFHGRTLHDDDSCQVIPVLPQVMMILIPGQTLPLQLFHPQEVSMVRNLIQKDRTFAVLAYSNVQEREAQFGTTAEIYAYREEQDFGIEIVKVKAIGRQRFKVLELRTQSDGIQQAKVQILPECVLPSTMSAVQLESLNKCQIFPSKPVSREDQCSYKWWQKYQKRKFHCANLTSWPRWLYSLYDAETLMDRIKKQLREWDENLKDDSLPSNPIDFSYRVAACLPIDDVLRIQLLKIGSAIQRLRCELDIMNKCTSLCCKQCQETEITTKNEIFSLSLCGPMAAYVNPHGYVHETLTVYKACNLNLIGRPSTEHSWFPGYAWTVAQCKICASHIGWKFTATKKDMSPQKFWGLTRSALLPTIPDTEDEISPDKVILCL
# T2 sequence (Q16531 whole entry partner): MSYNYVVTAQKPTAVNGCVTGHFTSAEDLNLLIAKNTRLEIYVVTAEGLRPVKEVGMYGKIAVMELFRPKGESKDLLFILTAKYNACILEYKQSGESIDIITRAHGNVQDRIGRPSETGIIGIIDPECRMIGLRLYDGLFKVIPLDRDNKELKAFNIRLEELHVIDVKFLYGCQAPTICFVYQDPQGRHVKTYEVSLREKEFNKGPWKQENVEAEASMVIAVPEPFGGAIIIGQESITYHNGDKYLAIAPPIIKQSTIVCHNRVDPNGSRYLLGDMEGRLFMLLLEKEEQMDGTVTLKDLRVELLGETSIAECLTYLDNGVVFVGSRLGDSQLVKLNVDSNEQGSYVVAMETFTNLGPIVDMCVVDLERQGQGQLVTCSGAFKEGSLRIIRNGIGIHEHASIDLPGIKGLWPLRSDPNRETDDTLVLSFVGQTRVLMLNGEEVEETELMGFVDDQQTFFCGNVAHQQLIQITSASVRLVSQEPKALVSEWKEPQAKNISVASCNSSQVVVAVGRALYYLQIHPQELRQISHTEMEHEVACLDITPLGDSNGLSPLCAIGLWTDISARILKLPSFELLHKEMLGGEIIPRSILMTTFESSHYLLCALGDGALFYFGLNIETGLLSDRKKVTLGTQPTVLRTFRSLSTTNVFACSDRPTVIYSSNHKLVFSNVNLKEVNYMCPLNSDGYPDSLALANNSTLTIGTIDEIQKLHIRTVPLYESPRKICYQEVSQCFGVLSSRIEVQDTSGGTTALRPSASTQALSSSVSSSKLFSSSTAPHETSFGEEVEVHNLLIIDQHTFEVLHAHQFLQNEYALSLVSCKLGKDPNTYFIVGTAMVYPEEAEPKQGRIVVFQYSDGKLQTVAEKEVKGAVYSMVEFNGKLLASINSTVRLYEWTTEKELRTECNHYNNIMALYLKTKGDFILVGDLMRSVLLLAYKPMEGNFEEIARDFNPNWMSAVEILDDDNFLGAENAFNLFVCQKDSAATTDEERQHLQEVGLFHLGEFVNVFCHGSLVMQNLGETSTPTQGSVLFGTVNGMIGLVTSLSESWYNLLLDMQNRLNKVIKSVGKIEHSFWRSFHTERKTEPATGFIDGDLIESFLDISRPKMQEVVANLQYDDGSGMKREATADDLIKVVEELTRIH
# T1 sequence (Q9UKT9 whole entry): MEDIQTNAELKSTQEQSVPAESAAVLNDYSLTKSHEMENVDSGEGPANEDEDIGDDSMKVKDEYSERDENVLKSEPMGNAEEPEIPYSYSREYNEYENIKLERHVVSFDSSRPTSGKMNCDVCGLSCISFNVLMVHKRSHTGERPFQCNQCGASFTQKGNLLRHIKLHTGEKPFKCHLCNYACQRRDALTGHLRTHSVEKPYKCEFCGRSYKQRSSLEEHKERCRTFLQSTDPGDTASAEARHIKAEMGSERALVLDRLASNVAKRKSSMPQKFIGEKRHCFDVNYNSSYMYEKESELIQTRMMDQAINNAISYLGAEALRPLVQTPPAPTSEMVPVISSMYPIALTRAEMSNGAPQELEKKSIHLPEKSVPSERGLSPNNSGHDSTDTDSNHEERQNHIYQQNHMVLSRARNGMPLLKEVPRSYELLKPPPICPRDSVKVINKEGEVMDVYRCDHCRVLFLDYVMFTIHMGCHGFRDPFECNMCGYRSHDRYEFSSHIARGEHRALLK
# T1 sequence (Q96SW2 whole entry): as the sequence (Q96SW2 whole entry) above
# T1 sequence (Q16531 whole entry partner): as the sequence (Q16531 whole entry partner) above
# T5 sequence (P48729 whole entry): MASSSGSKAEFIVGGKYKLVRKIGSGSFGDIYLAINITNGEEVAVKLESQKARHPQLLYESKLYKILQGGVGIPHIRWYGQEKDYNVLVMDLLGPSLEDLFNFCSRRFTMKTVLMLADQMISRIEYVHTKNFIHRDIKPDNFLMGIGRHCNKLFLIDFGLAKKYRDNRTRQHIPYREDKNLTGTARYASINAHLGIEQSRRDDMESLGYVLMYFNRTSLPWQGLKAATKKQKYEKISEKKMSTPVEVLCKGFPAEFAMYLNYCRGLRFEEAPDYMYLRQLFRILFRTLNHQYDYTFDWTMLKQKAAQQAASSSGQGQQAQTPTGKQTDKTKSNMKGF
# T5 sequence (Q96SW2 whole entry): as the sequence (Q96SW2 whole entry) above
# T5 sequence (Q16531 whole entry partner): as the sequence (Q16531 whole entry partner) above
# T6 sequence (Q9UKS7 whole entry): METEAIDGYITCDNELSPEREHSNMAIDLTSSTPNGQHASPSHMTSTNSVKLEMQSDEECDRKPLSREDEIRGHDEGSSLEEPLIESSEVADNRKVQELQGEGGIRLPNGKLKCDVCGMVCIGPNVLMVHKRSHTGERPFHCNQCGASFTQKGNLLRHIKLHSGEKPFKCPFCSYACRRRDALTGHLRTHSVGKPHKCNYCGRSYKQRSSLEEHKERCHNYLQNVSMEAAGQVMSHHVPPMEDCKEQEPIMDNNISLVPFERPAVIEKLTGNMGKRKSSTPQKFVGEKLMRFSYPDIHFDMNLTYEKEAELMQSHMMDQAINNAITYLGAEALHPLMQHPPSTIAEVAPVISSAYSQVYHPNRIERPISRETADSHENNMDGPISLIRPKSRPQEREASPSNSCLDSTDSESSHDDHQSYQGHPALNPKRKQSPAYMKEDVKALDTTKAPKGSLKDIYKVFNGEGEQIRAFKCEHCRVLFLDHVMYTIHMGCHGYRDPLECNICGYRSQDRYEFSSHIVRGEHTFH
# T6 sequence (Q96SW2 whole entry): as the sequence (Q96SW2 whole entry) above
# T6 sequence (Q16531 whole entry partner): as the sequence (Q16531 whole entry partner) above
# T4 sequence (P15170 whole entry): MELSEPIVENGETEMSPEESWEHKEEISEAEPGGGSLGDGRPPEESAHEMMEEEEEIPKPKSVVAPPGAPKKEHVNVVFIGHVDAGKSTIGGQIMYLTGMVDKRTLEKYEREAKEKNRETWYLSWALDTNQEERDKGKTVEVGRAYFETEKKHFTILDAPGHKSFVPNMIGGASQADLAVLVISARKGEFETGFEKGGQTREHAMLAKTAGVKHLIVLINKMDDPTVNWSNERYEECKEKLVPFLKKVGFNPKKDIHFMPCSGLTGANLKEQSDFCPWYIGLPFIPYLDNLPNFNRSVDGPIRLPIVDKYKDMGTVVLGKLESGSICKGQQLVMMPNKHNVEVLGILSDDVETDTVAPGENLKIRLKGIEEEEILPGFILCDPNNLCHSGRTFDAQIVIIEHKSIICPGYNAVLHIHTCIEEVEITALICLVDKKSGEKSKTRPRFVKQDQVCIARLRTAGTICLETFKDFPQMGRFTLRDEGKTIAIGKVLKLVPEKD
# T4 sequence (Q96SW2 whole entry): as the sequence (Q96SW2 whole entry) above
# T4 sequence (Q16531 whole entry partner): as the sequence (Q16531 whole entry partner) above
smiles,measurement,setting,value
"Cc1cccc(N2CCN(Cc3ccc4c(c3)CN(N3CCC(=O)NC3=O)C4=O)CC2)c1 [GT-06770, 1-(1-oxo-5-((4-(m-tolyl)piperazin-1-yl)methyl)isoindolin-2-yl)dihydropyrimidine-2,4(1H,3H)-dione]",IKZF3 substrate protein remaining %,IKZF3,"A (""A"" is defined as 0% ≤ substrate protein remaining % ≤ 80%)"
same,IC50,Jurkat,500 to 1000 nM
same,WEE1 substrate protein remaining %,WEE1,"A (""A"" is defined as 0% ≤ substrate protein remaining % ≤ 80%)"
same,IKZF1 substrate protein remaining %,IKZF1,"A (""A"" is defined as 0% ≤ substrate protein remaining % ≤ 80%)"
same,IC50,"MV-4-11; read-out: inhibitory activity (IC50, nM) against tumor cells proliferation, MV-4-11",500 to 1000 nM
same,GSPT1 substrate protein remaining %,GSPT1,"A (""A"" is defined as 0% ≤ substrate protein remaining % ≤ 80%)"
same,CK1α substrate protein remaining %,CK1α,"A (""A"" is defined as 0% ≤ substrate protein remaining % ≤ 80%)"
same,IKZF2 substrate protein remaining %,IKZF2,"A (""A"" is defined as 0% ≤ substrate protein remaining % ≤ 80%)"
"O=C1CCN(N2C(=O)c3ccc(CN4CCN(c5ncc(C(F)(F)F)cc5Cl)CC4)cc3C2=O)C(=O)N1 [GT-07026, 5-((4-(3-chloro-5-(trifluoromethyl)pyridin-2-yl)piperazin-1-yl)methyl)-2-(2,4-dioxotetrahydropyrimidin-1(2H)-yl)isoindoline-1,3-dione]",IKZF3 substrate protein remaining %,IKZF3,"B (""B"" is defined as 80%< substrate protein remaining %≤ 100%)"
same,IC50,Jurkat,500 to 1000 nM
same,WEE1 substrate protein remaining %,WEE1,"A (""A"" is defined as 0% ≤ substrate protein remaining % ≤ 80%)"
same,IKZF1 substrate protein remaining %,IKZF1,"B (""B"" is defined as 80%< substrate protein remaining %≤ 100%)"
same,GSPT1 substrate protein remaining %,GSPT1,"A (""A"" is defined as 0% ≤ substrate protein remaining % ≤ 80%)"
same,CK1α substrate protein remaining %,CK1α,"B (""B"" is defined as 80%< substrate protein remaining %≤ 100%)"
same,IKZF2 substrate protein remaining %,IKZF2,"B (""B"" is defined as 80%< substrate protein remaining %≤ 100%)"
"O=C1CCN(N2Cc3cc(CN4CC=C(c5ncnc6sccc56)CC4)ccc3C2=O)C(=O)N1 [GT-08116, 1-(1-oxo-5-((4-(thieno[2,3-d]pyrimidin-4-yl)-3,6-dihydropyridin-1(2H)-yl)methyl)isoindolin-2-yl)dihydropyrimidine-2,4(1H,3H)-dione]",substrate protein remaining % IKZF3,IKZF3; [1],A (0% ≤ substrate protein remaining % ≤ 80%)
same,inhibition at 0.01 µM,H292; [2],15 to 20%
same,inhibition at 0.5 µM,H292; [3],15 to 20%
same,inhibition at 0.01 µM,MDA-MB-231; [2],25 to 40%
same,inhibition at 0.5 µM,MDA-MB-231; [3],25 to 40%
same,substrate protein remaining % WEE1,WEE1; [1],A (0% ≤ substrate protein remaining % ≤ 80%)
same,substrate protein remaining % IKZF1,IKZF1; [1],A (0% ≤ substrate protein remaining % ≤ 80%)
same,inhibition at 0.01 µM,MV-4-11; [2],40 to 60%
same,inhibition at 0.5 µM,MV-4-11; [3],80 to 100%
same,substrate protein remaining % GSPT1,GSPT1; [1],A (0% ≤ substrate protein remaining % ≤ 80%)
same,inhibition at 0.01 µM,H2228; [2],15 to 20%
same,inhibition at 0.5 µM,H2228; [3],20 to 25%
same,substrate protein remaining % CK1α,CK1α; [1],A (0% ≤ substrate protein remaining % ≤ 80%)
same,substrate protein remaining % IKZF2,IKZF2; [1],B (80%< substrate protein remaining %≤ 100%)
same,inhibition at 0.01 µM,MM.1S; [2],10 to 20%
same,inhibition at 0.5 µM,MM.1S; [3],60 to 80%
